{
  "source": "patent US11629192B2",
  "about": "“Methods and pharmaceutical compositions for the treatment of diseases mediated by the NRP-1/OBR complex signaling pathway” (INSERM (Institut National de la Sante et de la Recherche …, priority 2014, dated 2023)",
  "biological_target": "T1, OBR (Homo sapiens, UniProt P48357)",
  "T1 sequence (P48357 22-1165)": "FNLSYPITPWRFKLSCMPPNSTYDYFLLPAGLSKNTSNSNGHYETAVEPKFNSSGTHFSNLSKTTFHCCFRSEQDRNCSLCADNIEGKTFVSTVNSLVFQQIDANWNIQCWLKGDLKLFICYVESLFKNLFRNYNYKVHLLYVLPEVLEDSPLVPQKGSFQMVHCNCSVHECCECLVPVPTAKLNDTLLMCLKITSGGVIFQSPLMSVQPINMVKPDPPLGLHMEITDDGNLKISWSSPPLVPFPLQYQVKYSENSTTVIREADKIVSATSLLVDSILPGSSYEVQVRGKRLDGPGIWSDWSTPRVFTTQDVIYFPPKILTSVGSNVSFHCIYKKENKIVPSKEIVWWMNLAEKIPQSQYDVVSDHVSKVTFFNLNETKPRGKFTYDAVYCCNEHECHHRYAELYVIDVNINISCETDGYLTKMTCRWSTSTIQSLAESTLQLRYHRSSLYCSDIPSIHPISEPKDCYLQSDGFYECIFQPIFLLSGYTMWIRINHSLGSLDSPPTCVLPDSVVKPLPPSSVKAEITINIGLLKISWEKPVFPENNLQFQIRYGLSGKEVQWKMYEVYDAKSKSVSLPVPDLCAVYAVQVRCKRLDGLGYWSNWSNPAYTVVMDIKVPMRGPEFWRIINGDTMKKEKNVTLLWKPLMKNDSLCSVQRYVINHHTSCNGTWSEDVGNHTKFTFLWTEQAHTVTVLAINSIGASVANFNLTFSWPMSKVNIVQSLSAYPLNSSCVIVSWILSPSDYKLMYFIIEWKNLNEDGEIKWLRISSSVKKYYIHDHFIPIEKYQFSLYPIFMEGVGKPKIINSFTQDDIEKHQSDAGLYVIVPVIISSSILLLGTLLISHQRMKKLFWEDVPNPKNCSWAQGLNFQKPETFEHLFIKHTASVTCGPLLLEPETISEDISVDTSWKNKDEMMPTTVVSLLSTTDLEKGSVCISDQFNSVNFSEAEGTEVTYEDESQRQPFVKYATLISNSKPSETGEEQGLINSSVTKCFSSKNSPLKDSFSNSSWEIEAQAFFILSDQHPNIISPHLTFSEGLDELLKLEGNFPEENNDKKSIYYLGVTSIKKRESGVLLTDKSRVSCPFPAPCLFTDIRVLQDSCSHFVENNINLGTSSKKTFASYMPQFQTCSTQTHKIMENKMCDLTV",
  "assay": "Bio-Layer Interferometry (BLI) binding to OBR",
  "excerpt": "FIG. 5. NRP-1, OBR and leptin interactions confirmation using a Bio-Layer Interferometry (BLI) technology (fortebio.com/bli-technology.html): A-Leptin (OB) interaction to OBR is used as a positive control. Human neuropilin-1 (hNRP-1) interact with human OBR with a high affinity and specifically with human leptin (hOB) but not with murine leptin (mOB). VEGF165 binding to hNRP-1 is used as a positive control. B-Leptin and Avastin association increases MDA-MB231 cells transmigration through […] pore Insert. Avastin treatment may prevent a negative feedback control by VEGF of the pro-angiogenic signaling pathway of Leptin. VEGF binds to OBR which confirms our hypothesis that should be more investigated.",
  "data": [
    {"substance": "VEGF", "values": [
      {"measurement": "binding to OBR", "result": "binds"}
    ]}
  ]
}
